Measured values published in publication PMC8952364, “Polyphenols as Inhibitors of Antibiotic Resistant Bacteria—Mechanisms Underlying Rutin Interference with Bacterial Virulence” (Pharmaceuticals, 2022).
In brackets after ≈: the same amount, converted by molar mass. Read-outs that look alike come from different tables or passages of the source.

What was measured:
[1] = test system: Methicillin resistant S. aureus IBRS MRSA 011; assay: Antimicrobial microdilution assay (MIC/MBC); type: cell-based, Staphylococcus aureus; details: for MIC: 37 °C, 24 h; for MBC: subcultivation, 24 h at 37 °C
Description: (§1) The bacterial suspension (0.5 Mc Farland) was prepared, and twenty-fold dilutions of these suspensions were mixed in a 1:10 ratio with the corresponding polyphenol dilution (0.0039–1 mg/mL). Microtiter plates were incubated at 37 °C for 24 h. The lowest concentrations without visible growth (under a binocular microscope) were defined as MICs. The bactericidal concentrations (MBCs) were determined by serial subcultivation of 2 μL of the well’s content and further incubation for 24 h at 37 °C. Streptomycin (SigmaAldrich, Darmstadt, Germany) was used as a positive control. The polyphenols were obtained from Extrasynthese, Rhone, France (rutin, isoquercitrin) and SigmaAldrich, Germany (hesperetin, hesperidin, naringenin, naringin, taxifolin, morin, chlorogenic acid, ferulic acid, p-coumaric acid, and gallic acid). The stock compounds were prepared in ethanol (30%), and adequate ethanol concentrations were used as the negative control in the assays. Experiments were done in triplicate.

P. aeruginosa IBRS P001 = assay: Antimicrobial microdilution assay (MIC/MBC); type: cell-based, Pseudomonas aeruginosa; details: for MIC: 37 °C, 24 h; for MBC: subcultivation, 24 h at 37 °C
Description: as §1

P. aeruginosa MMA83 = assay: Antimicrobial microdilution assay (MIC/MBC); type: cell-based, Pseudomonas aeruginosa; details: for MIC: 37 °C, 24 h; for MBC: subcultivation, 24 h at 37 °C
Description: as §1

E. coli IBRS E003 = assay: Antimicrobial microdilution assay (MIC/MBC); type: cell-based, Escherichia coli; details: for MIC: 37 °C, 24 h; for MBC: subcultivation, 24 h at 37 °C
Description: as §1

E. coli IMD989 = assay: Antimicrobial microdilution assay (MIC/MBC); type: cell-based, Escherichia coli; details: for MIC: 37 °C, 24 h; for MBC: subcultivation, 24 h at 37 °C
Description: as §1

A. baumannii 6077/12 = assay: Antimicrobial microdilution assay (MIC/MBC); type: cell-based, Acinetobacter baumannii; details: for MIC: 37 °C, 24 h; for MBC: subcultivation, 24 h at 37 °C
Description: as §1

A. baumannii S2/2 = assay: Antimicrobial microdilution assay (MIC/MBC); type: cell-based, Acinetobacter baumannii; details: for MIC: 37 °C, 24 h; for MBC: subcultivation, 24 h at 37 °C
Description: as §1

K. pneumoniae IT977 = assay: Antimicrobial microdilution assay (MIC/MBC); type: cell-based, Klebsiella pneumoniae; details: for MIC: 37 °C, 24 h; for MBC: subcultivation, 24 h at 37 °C
Description: as §1

K. pneumoniae Ni9 = assay: Antimicrobial microdilution assay (MIC/MBC); type: cell-based, Klebsiella pneumoniae; details: for MIC: 37 °C, 24 h; for MBC: subcultivation, 24 h at 37 °C
Description: as §1

A. xylosoxidans 37F = assay: Antimicrobial microdilution assay (MIC/MBC); type: cell-based, Achromobacter xylosoxidans; details: for MIC: 37 °C, 24 h; for MBC: subcultivation, 24 h at 37 °C
Description: as §1

S. infantis 1371/1 = assay: Antimicrobial microdilution assay (MIC/MBC); type: cell-based, Salmonella Infantis; details: for MIC: 37 °C, 24 h; for MBC: subcultivation, 24 h at 37 °C
Description: as §1

[2] = test system: P. aeruginosa IBRS P001 biofilm; assay: Crystal violet antibiofilm assay (biofilm formation); type: cell-based, Pseudomonas aeruginosa; details: MIC and sub-MIC, 24 h, crystal violet, Figure 1
Description: After incubation, each well was washed twice with sterile PBS (phosphate-buffered saline, pH 7.4) and fixed with methanol for 10 min. After removal of methanol the plate was air-dried. The biofilm was stained with 0.1% crystal violet (Bio-Merieux, Marcy l’Etoile, France) for 30 min. The plate was washed with water, air dried, and the stain was dissolved with 200 μL of 96% ethanol (Zorka, Sabac, Serbia). The absorbance was read at 620 nm on a Multiskan™ FC microplate photometer (Thermo Scientific™, Waltham, MA, USA). The results are presented as biofilm forming capacity (%) compared to control.

HaCaT cells = assay: Cytotoxicity in HaCaT cell line (crystal violet assay); type: cell-based, human; details: HaCaT
Description: For determination of the polyphenols’ cytotoxic effect, a crystal violet assay was used, with modifications. The cytotoxic effect of polyphenols was analyzed on spontaneously immortalized human skin keratinocytes (HaCaT, AddexBio No. T0020001, San Diego, CA, USA) cell lines. […] Cells (1 × 10^4 cells/well) were seeded in a 96-well plate (Sarstedt, Nümbrecht, Germany) 24 h before treatment. […] Cells were incubated with the compounds for 24 h. […] After crystal violet was removed, the plates were washed in a stream of tap water and left to air-dry at room temperature for 24 h. The absorbance was measured in a microplate reader (Multiskan™ FC Microplate Photometer, Thermo Scientific™) at 590 nm. The results were expressed as IC50 value in μg/mL. The criterion used to categorize the cytotoxic activity polyphenols was as follows: […] All analyses were performed in triplicate; each replicate was also quantified three times. Data were expressed as mean standard deviation, where applicable.

[3] = test system: eleven antibiotic resistant strains of bacteria; assay: Antimicrobial assay, summary over the examined strains; type: cell-based
Description: as §1

[4] = test system: E. coli (0157:H7 ATCC 51659); parameters: method as in PMID 34073447; details: cited from earlier work
S. aureus (ATCC 25923) = test system: S. aureus (ATCC 25923); parameters: method as in PMID 34073447; details: cited from earlier work
[5] = test system: P. aeruginosa (NRRLB-272); parameters: method as in PMID 34073447; details: cited from earlier work
[6] = test system: S. aureus Newman and S. aureus Newman Δcoa; parameters: method as in PMID 32130467; details: cited from earlier work
[7] = test system: S. aureus clinical isolate; parameters: method as in doi:10.5937/leksir2040057K; details: cited from earlier work
S. aureus ATCC 11632 = test system: S. aureus ATCC 11632; parameters: method as in doi:10.5937/leksir2040057K; details: cited from earlier work

## COc1ccc([C@@H]2CC(=O)c3c(O)cc(O[C@@H]4O[C@H](CO[C@@H]5O[C@@H](C)[C@H](O)[C@@H](O)[C@H]5O)[C@@H](O)[C@H](O)[C@H]4O)cc3O2)cc1O [Hesperidin, hesperidin]
[1]
  MIC: 0.5 mg/mL (≈ 819 µM)
  MBC: 1 mg/mL (≈ 1640 µM)
P. aeruginosa IBRS P001
  MIC: 0.5 mg/mL (≈ 819 µM)
  MBC: 1 mg/mL (≈ 1640 µM)
P. aeruginosa MMA83
  MIC: 1 mg/mL (≈ 1640 µM)
  MBC: 1 mg/mL (≈ 1640 µM)
E. coli IBRS E003
  MIC: >1 mg/mL
  MBC: >1 mg/mL
E. coli IMD989
  MIC: >1 mg/mL
  MBC: >1 mg/mL
A. baumannii 6077/12
  MIC: 0.5 mg/mL (≈ 819 µM)
  MBC: 0.5 mg/mL (≈ 819 µM)
A. baumannii S2/2
  MIC: 0.5 mg/mL (≈ 819 µM)
  MBC: 0.5 mg/mL (≈ 819 µM)
K. pneumoniae IT977
  MIC: 1 mg/mL (≈ 1640 µM)
  MBC: 1 mg/mL (≈ 1640 µM)
K. pneumoniae Ni9
  MIC: 1 mg/mL (≈ 1640 µM)
  MBC: 1 mg/mL (≈ 1640 µM)
A. xylosoxidans 37F
  MIC: 1 mg/mL (≈ 1640 µM)
  MBC: 1 mg/mL (≈ 1640 µM)
S. infantis 1371/1
  MIC: >1 mg/mL
  MBC: >1 mg/mL
[2]
  reduction of biofilm formation (biomass), in words: significant (****, p < 0.0001) reduction
HaCaT cells; 24 h
  cytotoxicity towards HaCaT, in words: non-cytotoxic properties
HaCaT cells; 24 h treatment, crystal violet
  IC50 (compound concentration that inhibited 50% of the cell growth): >1 mg/mL
HaCaT cells; maximal tested concentrations (1 mg/mL)
  cytotoxicity category: no cytotoxicity (IC50 > 501 µg/mL = no cytotoxicity)
[3]; summary of Table 1
  MIC towards a range of antibiotic-resistant bacterial strains: ≥ 0.5 mg/mL
[4]
  MIC: 1.13 mg/mL (≈ 1850 µM)
S. aureus (ATCC 25923)
  MIC: 1.53 mg/mL (≈ 2510 µM)
[5]
  MIC: 1.27 mg/mL (≈ 2080 µM)

## O=c1c(O[C@@H]2O[C@H](CO)[C@@H](O)[C@H](O)[C@H]2O)c(-c2ccc(O)c(O)c2)oc2cc(O)cc(O)c12 [Isoquercitrin, isoquercitrin]
[1]; Staphylococcus aureus, MRSA, read-out: MIC
  MIC: 0.5 mg/mL (≈ 1080 µM)
[1]; Staphylococcus aureus, MRSA, read-out: MBC
  MBC: 1 mg/mL (≈ 2150 µM)
P. aeruginosa IBRS P001; Pseudomonas aeruginosa, IBRSP001, read-out: MIC
  MIC: 0.25 mg/mL (≈ 538 µM)
P. aeruginosa IBRS P001; Pseudomonas aeruginosa, IBRSP001, read-out: MBC
  MBC: 0.5 mg/mL (≈ 1080 µM)
P. aeruginosa MMA83; Pseudomonas aeruginosa, MMA83, read-out: MIC
  MIC: 0.25 mg/mL (≈ 538 µM)
P. aeruginosa MMA83; Pseudomonas aeruginosa, MMA83, read-out: MBC
  MBC: 0.25 mg/mL (≈ 538 µM)
E. coli IBRS E003; Escherichia coli, IBRSE003, read-out: MIC
  MIC: > 1 mg/mL
E. coli IBRS E003; Escherichia coli, IBRSE003, read-out: MBC
  MBC: > 1 mg/mL
E. coli IMD989; Escherichia coli, IMD989, read-out: MIC
  MIC: 1 mg/mL (≈ 2150 µM)
E. coli IMD989; Escherichia coli, IMD989, read-out: MBC
  MBC: 1 mg/mL (≈ 2150 µM)
A. baumannii 6077/12; Acinetobacter baumannii, 6077/12, read-out: MIC
  MIC: 0.25 mg/mL (≈ 538 µM)
A. baumannii 6077/12; Acinetobacter baumannii, 6077/12, read-out: MBC
  MBC: 0.5 mg/mL (≈ 1080 µM)
A. baumannii S2/2; Acinetobacter baumannii, S2/2, read-out: MIC
  MIC: 0.5 mg/mL (≈ 1080 µM)
A. baumannii S2/2; Acinetobacter baumannii, S2/2, read-out: MBC
  MBC: 0.5 mg/mL (≈ 1080 µM)
K. pneumoniae IT977; Klebsiella pneumoniae, IT977, read-out: MIC
  MIC: 1 mg/mL (≈ 2150 µM)
K. pneumoniae IT977; Klebsiella pneumoniae, IT977, read-out: MBC
  MBC: 1 mg/mL (≈ 2150 µM)
K. pneumoniae Ni9; Klebsiella pneumoniae, NI9, read-out: MIC
  MIC: 0.5 mg/mL (≈ 1080 µM)
K. pneumoniae Ni9; Klebsiella pneumoniae, NI9, read-out: MBC
  MBC: 1 mg/mL (≈ 2150 µM)
A. xylosoxidans 37F; Achromobacter xylosoxidans, 37F, read-out: MIC
  MIC: 0.5 mg/mL (≈ 1080 µM)
A. xylosoxidans 37F; Achromobacter xylosoxidans, 37F, read-out: MBC
  MBC: 0.5 mg/mL (≈ 1080 µM)
S. infantis 1371/1; Salmonella enterica, 1371/1, read-out: MIC
  MIC: 1 mg/mL (≈ 2150 µM)
S. infantis 1371/1; Salmonella enterica, 1371/1, read-out: MBC
  MBC: 1 mg/mL (≈ 2150 µM)
[2]
  reduction of biofilm formation (biomass), in words: promising (***, p ≤ 0.001) potential to reduce the biomass
HaCaT cells; Homo sapiens, 24 h, read-out: IC50 (compound concentration that inhibited 50% of the cell growth)
  IC50: > 1000 µg/mL
[3]; antibiotic resistant strains of Table 1, read-out: lowest MIC among the examined strains
  MIC: 250 µg/mL (≈ 538 µM)
[6]
  MIC (no inhibitory activity up to): > 1024 µg/mL
[7]
  MIC: 0.2 mg/mL (≈ 431 µM)
S. aureus ATCC 11632
  MIC: 0.1 mg/mL (≈ 215 µM)
